For data set [1], the system named is Malignant epithelial cells. In words: Doubling of malignant epithelial cell populations under PARP (tankyrase) inhibition. Format: cell-based. To be noted: 0.1 M; after 10 weeks; compared with control grown without it; FIG. 20. As for the experimental part:
Malignant epithelial cells were grown in the presence of 0.1 M benzamide, which is known to inhibit all PARPs. The doubling of the cell populations was observed over a period of time, and compared to a control, which was grown in the absence of benzamide.

The nature of data set [2]: Local vasodilation following topical application of cream (assesses rate of hydrolysis to nicotinate). The format is in vivo. To be noted: for duration of vasodilation / onset of vasodilation: topical application of a cream containing 0.05%. The text has this: The next issue considered was the rate of hydrolysis of topically applied pro-NAD agents to nicotinic acid such that conversion to NAD can be completed by the pathway shown in FIG. 11. The rates of hydrolysis of a pro-NAD agent following topical application can be assessed by evaluation of local vasodilation following topical application of a pro-NAD agent. […] Experiments have compared the absence or presence of vasodilation (and the time course of vasodilation when present) for a number of the pro-NAD agents shown in FIG. 13. For example, application of a cream containing 0.05% hexylnicotinate results in vasodilation with onset at approximately 10 minutes and duration of approximately 90 minutes. A similar application of octylnicotinate results in an onset of vasodilation at approximately 15 minutes with duration of 360 minutes. […] These experiments indicate that tetradecylnicotinate is released very slowly following application. Two factors are likely involved in the rate of hydrolysis of topically applied pro-NAD agents, the rate of departure from the stratum corneum and the rate of hydrolysis by esterases present in the epidermal and dermal layers of the skin.

Another data set concerns human skin fibroblasts. The data set is described as follows: Bioconversion of pro-NAD agents to NAD by skin fibroblasts in culture. Format: cell-based. To be noted: FIG. 11.
Data set [3] has as its system cells. The data set is described as follows: DNA integrity following genotoxic stress induced by MNNG. Format: cell-based. To be noted: high levels (500 micromolar) compared with normal levels (50 micromolar), FIG. 12A. The procedure:
The DNA repair proficiency as a function of NAD content has been assessed also by a technique called a “comet assay.” In a comet assay (O. Ostling and K. J. Johanson, Biochem. Biophys. Res. Commun. 123: 291 (1984); P. L. Olive and J. P. Banath, Exp. Cell Res. 221: 19 (1995)), cells are plated out after embedding into liquid agarose on a carrier and lysed in situ after formation of an agarose gel. The DNA of the individual cells is then separated in situ in an electric field. Damaged DNA containing strand breaks migrates away from the cell nucleus due to its smaller size and this migration results in an image where the nucleus appears as the head of the comet and the broken DNA appears as tail of the comet. The more degraded the genomic DNA is, the greater the amount of migration-capable DNA and the longer the “comet tail.”

A further data set concerns Epithelial cells. In words: Necrosis and apoptosis of epithelial cells under MNNG genotoxic stress. The format is cell-based. As for the experimental part: Epithelial cells were subjected to genotoxic stress with the alkylating agent N-methyl-N^1-nitro-N-nitrosoguanidine, or “MNNG” as referred to supra and hereafter. Epithelial cells were cultured in the presence of either no MNNG, 10 μg/mL MNNG, or 20 μg/mL of MNNG, in medium containing either 0, 50 μM or 500 μM nicotinamide. Percent necrosis and apoptosis was studied over time, i.e., for 48 hours. […] Nicotinamide is converted to NAD, but as indicated, none was added in the experiments depicted in 17A and 17D.

Data set [4] deals with cells. The data set is described as follows: Survival under oxidative genotoxic stress caused by staurosporin. Format: cell-based. To be noted: 50 μM in medium compared with none; different concentrations of staurosporin; FIG. 19. As for the experimental part: These experiments describe studies on oxidative genotoxic stress, caused by staurosporin. Cells were contacted with different concentrations of staurosporin, and were cultured in medium that either contained no nicotinamide or 50 μM nicotinamide.

For the next data set, the system named is p53. To be noted: high levels of the agent; in the absence of and following genotoxic stress; FIG. 12B.
Data set [5] can be described thus: Octanol/water partition coefficient. Format: physicochemical. To be noted: extrapolated from Po/w values of the shorter esters; FIG. 14. The text has this: The first issue considered was the physical-chemical properties of the pro-NAD agents most desirable for topical application. The nicotinic acid molecule may not be optimal because it may be too polar to be effectively delivered to skin cells topically. Molecules that are too polar may not effectively partition into the apolar stratum corneum layer of skin and following passage across the stratum corneum, it would be expected to rapidly enter the systemic circulation. To evaluate the potential of these pro-NAD agents to partition into the stratum corneum, the octanol/water partition coefficients for the methyl, eythl-, butyl-, hexyl-, and octyl-esters of nicotinate were experimentally determined.
The octanol/water partition coefficient was determined by dissolving a known amount of pro-NAD agent in water and then mixing the aqueous compound with a known volume of octanol. After mixing for a period of 1 to 18 hours, aliquots of the water phase were analyzed by HPLC for the amount of remaining pro-NAD agent. The partition coefficient (P) was calculated from the following equation:
log Po/w=log10((Co−C)CVo))
where Co is the initial concentration in water and C is the concentration after partitioning. Vw and Vo represent the volume of water and octanol phases respectively.

A further data set has as its system NAD content of skin. The data set is described as follows: Skin NAD content after topical application, hairless mouse model. The format is in vivo. As for the experimental part:
(§1) Based on evaluation of pro-NAD agents, proof of principle experiments for elevation of skin cell NAD content by topical delivery were performed using a hairless mouse model. In brief, tetradecylnicotinate was used for the initial studies. In the study three daily topical applications of 1% tetradecylnicotinate cream to the back of the animals and no cream were applied to the abdomen. Immediately following the third application, the skin from the back and abdomen were analyzed for NAD content. Test samples of skin were frozen in liquid nitrogen and powdered by mechanical means. NAD content was assessed as described previously (Jacobson, E L, and Jacobson, M K Meth Enzymol 280, 221-230, 1997; Jacobson, E L et al., J Cell Physiol 99, 417-426, 1979). The NAD assay is based on the principle of enzymic cycling between oxidized and reduced states, in which NAD is rate-limiting for a series of amplification reactions. Total protein was assayed by the Bradford assay.
(§2) In another experiment, the effect of the number of daily application of 1% tetradecylnicotinate cream was examined. Again, application was made to the back of the animal and the abdomen of each animal served as control.

Data set [6] is described as follows: Signs of toxicity after topical application, hairless mouse model. Format: in vivo. To be noted: topical 1% cream, experiments of FIGS. 15 and 16. As for the experimental part:
as §1, §2

Setting [7] is: varying number of daily applications of 1% cream to the back, FIG. 16.

Each structure is given as a SMILES string.

Experimental for human skin fibroblasts: A series of experiments were performed to determine the possible classes of pro-NAD agents that may be used for the elevation of skin cell NAD content by topical application. Any compound that can be converted to NAD is referred to here as a “pro-NAD” agent.
Experimental for p53: Briefly, cells were grown in control or suboptimal niacin media as described in Example 1 above, resulting in cells with normal or low NAD content. The protein of the cells was then extracted and portions of the extract were separated by SDS-polyacrylamide gel electrophoresis (SDS-PAGE) and p53 protein content was determined by immunoblotting (western blotting). […] FIG. 9B compares the relative content of p53 following genotoxic stress caused by the alkylating agent MNNG in cells with a low or normal NAD content.

For `NC(=O)c1ccccc1` [benzamide], the “doubling of the cell populations” value in [1] was “stopped doubling”.

For `CCCCCCOC(=O)c1cccnc1` [hexylnicotinate], in [2], the duration of vasodilation result was “approximately 90 minutes” and the onset of vasodilation entry was “approximately 10 minutes”.

`NC(=O)c1cccnc1` [nicotinamide]: in the data set on human skin fibroblasts, the “bioconversion to NAD” value is “can be bioconverted to NAD”. Also, the DNA integrity entry in the data set on cells [3] is “decreased DNA integrity”. Moreover, the “response (necrosis, apoptosis) to MNNG induced genotoxic shock” value with Epithelial cells (500 μM in medium, MNNG 10 or 20 μg/mL, 48 hours, FIGS. 17C and 17F) is listed as “Normal responses were not established”. Further, the “involvement in cell death pathways (cellular morphology over time)” value in the data set on Epithelial cells (none, 50 μM or 500 μM in medium, FIGS. 18A-18D) is “involved in cellular necrosis pathways much more than in apoptosis pathways”. Besides, the “rate of cell death (percentage survival)” value in the data set on cells [4] is recorded as “rate of cell death is decreased significantly”. In addition, the “p53 levels / p53-signaling response” value in the data set on p53 is “abnormally high levels of p53”.

As to `O=C(O)c1cccnc1` [nicotinic acid], in the data set with human skin fibroblasts, the “bioconversion to NAD” value was “can be bioconverted to NAD”.

Turning to `CCCCCCCCCCCCCCCCCCOC(=O)c1cccnc1` [octadecylnicotinate], in data set [5], the “properties for partitioning into the stratum corneum (Po/w predicted by extrapolation)” value is given as “favorable properties for partitioning into the stratum corneum”.

In the case of `CCCCCCCCOC(=O)c1cccnc1` [octylnicotinate], in [2], the duration of vasodilation worked out at 360 min and the onset of vasodilation entry is “approximately 15 minutes”.

In the case of `CCCCCCCCCCCCCCOC(=O)c1cccnc1` [tetradecylnicotinate], the “properties for partitioning into the stratum corneum (Po/w predicted by extrapolation)” value in data set [5] is “favorable properties for partitioning into the stratum corneum”. Besides, the vasodilation result in data set [2] (similar topical application of cream (0.05%)) was “does not result in vasodilation”. In addition, the “NAD content of skin removed from the abdomen (no cream applied)” value in the data set with NAD content of skin (three daily applications of 1% cream to the back, FIG. 15) was “not increased”. For the same compound, in the data set on NAD content of skin (three daily topical applications of 1% cream to the back, back skin, FIG. 15), the “skin NAD content relative to control animal treated with base cream only” value was 143%. For the same compound, in the data set with NAD content of skin (setting [7]), the “NAD content of skin removed from the back” value is “increased as a function of the number of daily applications” and the “NAD content of the abdomen (control site)” value was “did not increase”. The signs of toxicity entry in data set [6] is recorded as “in no case were any signs of toxicity observed”.

The record behind these values is patent US6403619B1, “Method for controlling cell necrosis or apoptosis” (University of Kentucky Research Foundation, priority 1998, dated 2002).
